Results as given in patent US20260085058A1, “DEGRADERS OF SON OF SEVENLESS HOMOLOG 1” (H. LEE MOFFITT CANCER CENTER AND RESEARCH INSTITUTE, INC., priority 2022, published 2026).

Target: T1, SOS1 (Homo sapiens, UniProt Q07889)
T1 sequence (Q07889 1-1333): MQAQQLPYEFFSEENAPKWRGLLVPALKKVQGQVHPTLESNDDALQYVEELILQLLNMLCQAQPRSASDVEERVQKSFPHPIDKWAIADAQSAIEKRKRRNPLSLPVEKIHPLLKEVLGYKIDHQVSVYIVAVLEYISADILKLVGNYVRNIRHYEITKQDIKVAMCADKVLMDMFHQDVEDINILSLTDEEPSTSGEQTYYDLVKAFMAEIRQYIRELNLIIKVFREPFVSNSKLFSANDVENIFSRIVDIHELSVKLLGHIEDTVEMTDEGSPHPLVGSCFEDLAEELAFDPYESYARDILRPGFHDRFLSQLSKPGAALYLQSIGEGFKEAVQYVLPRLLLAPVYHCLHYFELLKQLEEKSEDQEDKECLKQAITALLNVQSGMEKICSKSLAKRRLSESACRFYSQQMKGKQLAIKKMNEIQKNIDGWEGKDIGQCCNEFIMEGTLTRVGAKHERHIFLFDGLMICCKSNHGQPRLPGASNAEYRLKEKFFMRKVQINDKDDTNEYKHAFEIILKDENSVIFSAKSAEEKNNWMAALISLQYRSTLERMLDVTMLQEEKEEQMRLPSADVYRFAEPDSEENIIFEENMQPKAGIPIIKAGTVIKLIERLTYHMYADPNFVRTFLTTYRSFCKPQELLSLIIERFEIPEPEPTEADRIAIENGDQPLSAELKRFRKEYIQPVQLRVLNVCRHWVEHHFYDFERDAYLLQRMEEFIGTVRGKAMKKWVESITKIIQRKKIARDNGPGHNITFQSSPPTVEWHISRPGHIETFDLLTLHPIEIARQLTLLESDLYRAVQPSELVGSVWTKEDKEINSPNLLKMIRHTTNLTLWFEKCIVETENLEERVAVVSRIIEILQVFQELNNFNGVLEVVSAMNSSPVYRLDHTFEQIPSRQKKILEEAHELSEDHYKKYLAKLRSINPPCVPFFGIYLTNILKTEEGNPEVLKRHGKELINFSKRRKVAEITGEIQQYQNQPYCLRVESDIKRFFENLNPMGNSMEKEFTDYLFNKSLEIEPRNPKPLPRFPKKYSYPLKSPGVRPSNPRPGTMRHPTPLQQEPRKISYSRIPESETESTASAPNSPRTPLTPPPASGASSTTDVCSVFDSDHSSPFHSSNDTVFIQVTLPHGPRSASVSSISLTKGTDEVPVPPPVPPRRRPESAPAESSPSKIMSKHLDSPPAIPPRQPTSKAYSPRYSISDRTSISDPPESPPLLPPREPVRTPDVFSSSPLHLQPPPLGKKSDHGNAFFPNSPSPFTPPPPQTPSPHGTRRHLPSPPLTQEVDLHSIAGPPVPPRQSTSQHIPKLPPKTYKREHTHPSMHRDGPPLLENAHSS
Test: Immunohistochemical staining of SOS1 on CRC patient-derived organoids
Type: cell-based
Design: endogenous in cells; host or cells: CRC patient-derived organoids MCC19990-002, MCC19990-010, MCC19990-013
Details: MCC19990-002, MCC19990-010, MCC19990-013 PDOs, 1 μM, 24 hours, vs DMSO
Protocol: To one or two confluent wells of organoids was added 1:5 diluted 500 μL of 5 units/mL dispase in HBSS (StemCell: 07913) and incubated at 37° C. in 5% CO2 atmosphere. Organoids were harvested and transferred to a 1.5 mL Eppendorf tube. The pellet was collected after centrifugation at 1500 rpm for 6 min, and washed with 1×PBS. The pellet was resuspended in 1 mL of 4% PFA and incubated at 4° C. overnight. The pellet was resuspended in 100 μL of 37° C. warmed histogel, centrifuged at 1000 rpm for 30 seconds to settle the organoids. The gel was allowed to polymerize at 4° C. for 10 minutes and then the plug was transferred to a 5 mL tube containing 2 mL 70% ethanol, and sent to the histology lab. Organoids were paraffin-embedded and subjected to serial sections for hematoxylin and eosin staining and immunohistochemistry following a common procedure at the histology lab. The slides/sections were cut at 4 micron thickness using a Leica RM2245 microtome. Charged slides were used.
Immunohistochemical staining of SOS1 on organoids: Slides were stained using a Ventana Discovery Ultra automated system (Ventana Medical Systems, Tucson, AZ) as per manufacturer's protocol with proprietary reagents. Briefly, slides were deparaffinized on the automated system with Discovery Wash Solution (Ventana). Heat-induced antigen retrieval method was used in Cell Conditioning 1 Mild (Ventana). […]

Structure (SMILES): COc1cc2c(N[C@H](C)c3cc(N)cc(C(F)(F)F)c3)nc(C)nc2cc1OCC(=O)Nc1cccc2c1CN(C1CCC(=O)NC1=O)C2=O (stereo partly drawn) [P7, 2-((4-(((R)-1-(3-amino-S-(trifluoromethyl)phenyl)ethyl)amino)-6-methoxy-2-methylquinazolin-7-yl)oxy)-N-(2-(2,6-dioxopiperidin-3-yl)-1-oxoisoindolin-4-yl)acetamide]
- SOS1 expression by IHC (SOS1 degradation): significant SOS1 degradation at varying degrees
